According to patent US12661410B2, “Compounds for targeted degradation of RET” (C4 Therapeutics, Inc., priority 2020, dated 2026):
Numbering of substitutions follows the chain as printed. Like-named read-outs stand apart in the source and are kept apart here.

How the values were obtained:
RET(KD: 658-1114 G810R) = target: T1, RET(KD: 658-1114 G810R) (Homo sapiens, UniProt P07949, G810R); assay: HiBiT-Degradation, RET G810R degradation assay (Nano-Glo HiBiT Lytic), 293T.165 cells; type: cell-based; settings: for Emax / DC50: 6.0 hours; for Emax: % remaining protein, read-out: 293T.165 RET(KD: 658-1114 G810R) 6.0 hours (Emax); for DC50: read-out: 293T.165 RET(KD: 658-1114 G810R) 6.0 hours (DC50)
T1 construct: 658-1114; expressed in transfected cells; host or cells: 293T.165 (293T cells, generated in-house)
T1 sequence (P07949 658-1114 G810R): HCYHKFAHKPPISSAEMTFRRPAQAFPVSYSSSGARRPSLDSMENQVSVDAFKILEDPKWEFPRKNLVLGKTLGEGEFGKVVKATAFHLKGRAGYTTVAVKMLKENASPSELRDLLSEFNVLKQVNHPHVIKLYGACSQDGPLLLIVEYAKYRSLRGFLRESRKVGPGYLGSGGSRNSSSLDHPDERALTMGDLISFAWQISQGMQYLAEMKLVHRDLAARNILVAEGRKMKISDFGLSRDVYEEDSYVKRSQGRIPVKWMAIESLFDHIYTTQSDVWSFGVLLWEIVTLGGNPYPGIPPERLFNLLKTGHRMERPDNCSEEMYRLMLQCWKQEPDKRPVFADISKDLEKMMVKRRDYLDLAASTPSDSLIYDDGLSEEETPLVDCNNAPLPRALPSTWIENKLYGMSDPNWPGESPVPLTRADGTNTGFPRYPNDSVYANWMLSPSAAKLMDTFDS
Method in brief: (§1)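 Engineered 293T cells carry a HiBiT tag on the RET kinase domain, either wild type (line 293T.144) or G810R (line 293T.165). Compounds act for 6 h across a 10 μM-top, half-log 11-point range. Lytic HiBiT luminescence gives remaining protein, fitted for DC50 and Emax.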

RET (658-1114) = target: T2, RET (658-1114) (Homo sapiens, UniProt P07949); assay: HiBiT-Degradation, RET wild-type degradation assay (Nano-Glo HiBiT Lytic), 293T.144 cells; type: cell-based; settings: HiBiT-Degradation; for DC50 / Emax: 6.0 hours; for DC50: read-out: 293T.144 RET (658-1114) 6.0 hours (DC50); for Emax: read-out: 293T.144 RET (658-1114) 6.0 hours (Emax)
T2 construct: 658-1114; expressed in transfected cells; host or cells: 293T.144 (293T cells, generated in-house)
T2 sequence (P07949 658-1114): T1 sequence (P07949 658-1114 G810R) with R153G
Method in brief: as §1

[1] = half-maximal degradation concentration

| Compound | Emax (RET(KD: 658-1114 G810R)) [%] | DC50 (RET(KD: 658-1114 G810R); [1]) [nM] | 293T.165 RET(KD: 658-1114 G810R) 6.0 hours (Emax) (RET(KD: 658-1114 G810R); HiBiT-Degradation) | 293T.165 RET(KD: 658-1114 G810R) 6.0 hours (IP) [nM] (RET(KD: 658-1114 G810R); HiBiT-Degradation) | DC50 (RET(KD: 658-1114 G810R); HiBiT-Degradation) [nM] | 293T.144 RET (658-1114) 6.0 hours (IP) [nM] (RET (658-1114)) | DC50 (RET (658-1114)) [nM] | Emax (RET (658-1114)) [%] |
| --- | --- | --- | --- | --- | --- | --- | --- | --- |
| CC(C)NC(=O)C1(C)CCN(c2ccc(-c3cc(-c4ccc(N5CCN(C(=O)CN6CCC(c7ccc(NC8CCC(=O)NC8=O)cc7)CC6)CC5)cc4)cn4ncc(C#N)c34)cn2)CC1 (stereo not drawn) [Compound 35, 1-(5-(3-Cyano-6-(4-(4-(2-(4-(4-((2,6-dioxopiperidin-3-yl)amino)phenyl)piperidin-1-yl)acetyl)piperazin-1-yl)phenyl)pyrazolo[1,5-a]pyridin-4-yl)pyridin-2-yl)-N-isopropyl-4-methylpiperidine-4-carboxamide] | < 30 | < 50 | ++++ (< 30% = ++++) | ++++ (< 50 nM = ++++) | < 50 | ++++ (< 50 nM = ++++) | < 50 | < 30 |
| N#Cc1cnn2cc(-c3cnn(C4CCN(C(=O)CC5(O)CCN(c6ccc(NC7CCC(=O)NC7=O)cc6F)CC5)CC4)c3)nc(-c3ccc(N4CCC(c5ncccn5)CC4)nc3)c12 (stereo not drawn) [Compound 36, 6-[1-[1-[2-[1-[4-[(2,6-dioxo-3-piperidyl)amino]-2-fluoro-phenyl]-4-hydroxy-4-piperidyl]acetyl]-4-piperidyl]pyrazol-4-yl]-4-[6-(4-pyrimidin-2-yl-1-piperidyl)-3-pyridyl]pyrazolo[1,5-a]pyrazine-3-carbonitrile] | < 30 | < 50 | ++++ (< 30% = ++++) | ++++ (< 50 nM = ++++) | < 50 | ++++ (< 50 nM = ++++) | < 50 | < 30 |
| N#Cc1cnn2cc(-c3cnn(C4CCN(C(=O)CN5CCC(c6ccc(OC7CCC(=O)NC7=O)cc6F)CC5)CC4)c3)nc(-c3ccc(N4CCN(Cc5cc(F)ccn5)CC4)cc3)c12 (stereo not drawn) [Compound 38, 6-(1-(1-(2-(4-(4-((2,6-Dioxopiperidin-3-yl)oxy)-2-fluorophenyl)piperidin-1-yl)acetyl)piperidin-4-yl)-1H-pyrazol-4-yl)-4-(4-(4-((4-fluoropyridin-2-yl)methyl)piperazin-1-yl)phenyl)pyrazolo[1,5-a]pyrazine-3-carbonitrile] | < 50 | < 100 | +++ (<50% = +++) | ++++ (< 50 nM = ++++) | < 100 | ++++ (< 50 nM = ++++) | < 50 | < 30 |
| CC(=O)N1CCN(c2ccc(-c3cc(-c4ccc(N5CCN(C(=O)CN6CCC(c7ccc(NC8CCC(=O)NC8=O)cc7)CC6)CC5)cc4)cn4ncc(C#N)c34)cn2)CC1 (stereo not drawn) [Compound 41, 4-[6-(4-acetylpiperazin-1-yl)-3-pyridyl]-6-[4-[4-[2-[4-[4-[(2,6-dioxo-3-piperidyl)amino]phenyl]-1-piperidyl]acetyl]piperazin-1-yl]phenyl]pyrazolo[1,5-a]pyridine-3-carbonitrile] | < 50 | < 100 | +++ (<50% = +++) | ++++ (< 50 nM = ++++) | < 100 | ++++ (< 50 nM = ++++) | < 50 | < 30 |
| CC(=O)N1CCN(c2ccc(-c3cc(-c4cnn(C5CCN(C(=O)CN6CCC(c7ccc(NC8CCC(=O)NC8=O)cc7)CC6)CC5)c4)cn4ncc(C#N)c34)cn2)CC1 (stereo not drawn) [Compound 42, 4-[6-(4-acetylpiperazin-1-yl)-3-pyridyl]-6-[1-[1-[2-[4-[4-[(2,6-dioxo-3-piperidyl)amino]phenyl]-1-piperidyl]acetyl]-4-piperidyl]pyrazol-4-yl]pyrazolo[1,5-a]pyridine-3-carbonitrile] | < 50 | < 100 | +++ (<50% = +++) | ++++ (< 50 nM = ++++) | < 100 | ++++ (< 50 nM = ++++) | < 50 | < 30 |

Results, then the compound that gave them:

| Emax (RET(KD: 658-1114 G810R)) [%] | DC50 (RET(KD: 658-1114 G810R); [1]) [nM] | 293T.165 RET(KD: 658-1114 G810R) 6.0 hours (Emax) (RET(KD: 658-1114 G810R); HiBiT-Degradation) | 293T.165 RET(KD: 658-1114 G810R) 6.0 hours (IP) [nM] (RET(KD: 658-1114 G810R); HiBiT-Degradation) | DC50 (RET(KD: 658-1114 G810R); HiBiT-Degradation) [nM] | 293T.144 RET (658-1114) 6.0 hours (IP) [nM] (RET (658-1114)) | DC50 (RET (658-1114)) [nM] | Emax (RET (658-1114)) [%] | Compound |
| --- | --- | --- | --- | --- | --- | --- | --- | --- |
| < 30 | < 50 | ++++ (< 30% = ++++) | ++++ (< 50 nM = ++++) | < 50 | ++++ (< 50 nM = ++++) | < 50 | < 30 | CC(C)NC(=O)C1(C)CCN(c2ccc(-c3cc(-c4cnn([C@H]5CC[C@H](CCN6CCC(c7ccc(NC8CCC(=O)NC8=O)cc7F)CC6)CC5)c4)cn4ncc(C#N)c34)cn2)CC1 (stereo partly drawn) [Compound 34, 1-(5-(3-Cyano-6-(1-((1r,4r)-4-(2-(4-(4-((2,6-dioxopiperidin-3-yl)amino)-2-fluorophenyl)piperidin-1-yl)ethyl)cyclohexyl)-1H-pyrazol-4-yl)pyrazolo[1,5-a]pyridin-4-yl)pyridin-2-yl)-N-isopropyl-4-methylpiperidine-4-carboxamide] |
| < 30 | < 50 | ++++ (< 30% = ++++) | ++++ (< 50 nM = ++++) | < 50 | ++++ (< 50 nM = ++++) | < 50 | < 30 | CCC1(C(=O)NC(C)C)CCN(c2ccc(-c3cc(-c4ccc(N5CCC(O)(CCN6CCC(c7ccc(NC8CCC(=O)NC8=O)cc7F)CC6)CC5)cc4)cn4ncc(C#N)c34)cn2)CC1 (stereo not drawn) [Compound 39, 1-(5-(3-Cyano-6-(4-(4-(2-(4-(4-((2,6-dioxopiperidin-3-yl)amino)-2-fluorophenyl)piperidin-1-yl)ethyl)-4-hydroxypiperidin-1-yl)phenyl)pyrazolo[1,5-a]pyridin-4-yl)pyridin-2-yl)-4-ethyl-N-isopropylpiperidine-4-carboxamide] |
| < 30 | < 50 | ++++ (< 30% = ++++) | ++++ (< 50 nM = ++++) | < 50 | ++++ (< 50 nM = ++++) | < 50 | < 30 | CCC1(C(=O)NC2CCOCC2)CCN(c2ccc(-c3cc(-c4cnn([C@H]5CC[C@H](CCN6CCC(c7ccc(NC8CCC(=O)NC8=O)cc7F)CC6)CC5)c4)cn4ncc(C#N)c34)cn2)CC1 (stereo partly drawn) [Compound 40, 1-(5-(3-Cyano-6-(1-((trans)-4-(2-(4-(4-((2,6-dioxopiperidin-3-yl)amino)-2-fluorophenyl)piperidin-1-yl)ethyl)cyclohexyl)-1H-pyrazol-4-yl)pyrazolo[1,5-a]pyridin-4-yl)pyridin-2-yl)-4-ethyl-N-(tetrahydro-2H-pyran-4-yl)piperidine-4-carboxamide] |
| < 50 | < 100 | +++ (<50% = +++) | ++++ (< 50 nM = ++++) | < 100 | ++++ (< 50 nM = ++++) | < 50 | < 30 | CN(C)c1ccc(-c2cc(-c3cnn([C@H]4CC[C@@H](CCN5CCC(c6ccc(NC7CCC(=O)NC7=O)cc6)CC5)CC4)c3)cn3ncc(C#N)c23)cn1 (stereo partly drawn) [Compound 43, 4-[6-(dimethylamino)-3-pyridyl]-6-[1-[(1s,4s)-4-[2-[4-[4-[(2,6-dioxo-3-piperidyl)amino]phenyl]-1-piperidyl]ethyl]cyclohexyl]pyrazol-4-yl]pyrazolo[1,5-a]pyridine-3-carbonitrile] |
